One may read the GI50 as the concentration at which growth is held to half of that of the control.

This test deals with KPL-4 Cells. Nature of the test: Cell Proliferation Inhibition Test (CellTiter-Glo, 72 h). As to conditions: KPL4, 72 h incubation, CellTiter-Glo luminescence. It counts as cell-based. How it is done: Cell Proliferation Inhibition Test KPL-4 Cells in the logarithmic phase of growth were collected and re-suspended with fresh RPMI1640 complete cell culture medium, and adjusted to 2×10^4 cells/mL after cell counting. Cells were seeded into 96-well cell culture plates at 100 μL/well, and placed in a CO2 incubator (37° C., 5% CO2) overnight. In the next day, one of the cell culture plates were taken out, balanced to room temperature, and CellTiter-Glo reagent (Promega, USA), which was pre-balanced to room temperature and evenly mixed, was added into the plate at 100 μl. The plate was kept in dark for 30 min, and then luminescence value was read with a microplate reader (denoted as G0 value). The other cell culture plates were taken out and added with different concentrations of test compounds or DMSO (final concentration 0.5%) in corresponding wells. After incubated for 72 h in a CO2 incubator, the cell culture plates were balanced to room temperature and tested for cell viabilities using CellTiter-Glo reagent as described above (denoted as G3 value).
The cell proliferation rates were calculated using the following formula: Cell proliferation rate (%)=(mean of G3compound−mean of G0)/(mean of G3DMSO−mean of G0)×100.
(In general: Cellular ATP, detected with luciferase, serves as a proxy for viable cell number.)
The compound `CC[C@@]1(O)C(=O)OCc2c1cc1n(c2=S)Cc2c-1nc1cc(F)c(C)c3c1c2[C@H](NC(=O)C(O)CC1CC1)CC3` (stereo partly shown) [Example 20] had a GI50 of 4.79 nM. Then `CC[C@@]1(O)C(=O)OCc2c1cc1n(c2=S)Cc2c-1nc1cc(F)c(C)c3c1c2[C@H](NC(=O)C(C)(C)O)CC3` [Example 10], with 3.54 nM; and `CC[C@@]1(O)C(=O)OCc2c1cc1n(c2=S)Cc2c-1nc1cc(F)c(C)c3c1c2[C@H](NC(=O)C(O)c1ccccc1)CC3` (stereo partly shown) [Example 6], with 5.31 nM.

`CC[C@@]1(O)C(=O)OCc2c1cc1n(c2=S)Cc2c-1nc1cc(F)c(C)c3c1c2[C@@H](NC(=O)C(O)c1ccccc1)CC3` (stereo partly shown) [Example 5] had a GI50 of 1.79 nM. In turn, `CC[C@@]1(O)C(=O)OCc2c1cc1n(c2=S)Cc2c-1nc1cc(F)c(C)c3c1c2[C@H](NC(=O)C(O)C1CC1)CC3` (stereo partly shown) [Example 21] came in with a GI50 of 34.7 nM. In turn, `CC[C@@]1(O)C(=O)OCc2c1cc1n(c2=S)Cc2c-1nc1cc(F)c(C)c3c1c2[C@H](NC(=O)C(O)Cc1ccccc1)CC3` (stereo partly shown) [Example 8] yielded a GI50 of 4.95 nM.

With `CC[C@@]1(O)C(=O)OCc2c1cc1n(c2=S)Cc2c-1nc1cc(F)c(C)c3c1c2[C@H](NC(C)=O)CC3` [Example 4], the GI50 is 1.55 nM.

Compound `CC[C@@]1(O)C(=O)OCc2c1cc1n(c2=S)Cc2c-1nc1cc(F)c(C)c3c1c2[C@H](NC(=O)CN)CC3` [Example 14] came in with a GI50 of 6.14 nM. For `CC[C@@]1(O)C(=O)OCc2c1cc1n(c2=O)Cc2c-1nc1cc(F)c(C)c3c1c2[C@@H](NC(=O)CO)CC3` [DXd, reference compound], the GI50 amounted to 72 nM. Then `CC[C@@]1(O)C(=O)OCc2c1cc1n(c2=S)Cc2c-1nc1cc(F)c(C)c3c1c2[C@@H](NC(=O)C(C)(C)O)CC3` [Example 9], with 12.1 nM; and `CC[C@@]1(O)C(=O)OCc2c1cc1n(c2=S)Cc2c-1nc1cc(F)c(C)c3c1c2[C@@H](NC(=O)C(O)CC1CC1)CC3` (stereo partly shown) [Example 19], with 2.9 nM. With `CC[C@@]1(O)C(=O)OCc2c1cc1n(c2=S)Cc2c-1nc1cc(F)c(C)c3c1c2[C@@H](NC(=O)C1(O)CC1)CC3` [Example 17], the GI50 stood at 1.83 nM.

`CC[C@@]1(O)C(=O)OCc2c1cc1n(c2=S)Cc2c-1nc1cc(F)c(C)c3c1c2[C@@H](NC(=O)CN)CC3` [Example 13] showed a GI50 of 7.54 nM.

In the case of `CC[C@@]1(O)C(=O)OCc2c1cc1n(c2=S)Cc2c-1nc1cc(F)c(C)c3c1c2[C@H](NC(=O)C1(O)CC1)CC3` [Example 18], it took 3.89 nM to inhibit growth by half (GI50). In turn, `CC[C@@]1(O)C(=O)OCc2c1cc1n(c2=S)Cc2c-1nc1cc(F)c(C)c3c1c2[C@@H](NC(C)=O)CC3` [Example 3] displayed a GI50 of 2.59 nM.

Compound `CC[C@@]1(O)C(=O)OCc2c1cc1n(c2=S)Cc2c-1nc1cc(F)c(C)c3c1c2[C@@H](NC(=O)C(O)Cc1ccccc1)CC3` (stereo partly shown) [Example 7] showed a GI50 of 5.76 nM.

(Values after patent publication US20240132515A1, “TOXIN MOLECULE SUITABLE FOR ANTIBODY-DRUG CONJUGATE” (MINGHUI PHARMACEUTICAL (HANGZHOU) LIMITED, priority 2021, published 2024).)
